According to US10570122B2, “Compounds with anti-tumoral activity” (AB Science, priority 2015, dated 2020):

Assays:
CLS354 = assay: CellTiter-Blue cell-based survival/proliferation assay, CLS354; details: Homo sapiens, CLS-354; CLS354_4 head & neck tumor cell line, 48 h
Procedure: (§1) Cell-Based Proliferation Screening of Compounds
(§2) CellTiter-Blue cell-based survival/proliferation assay (Promega G8080) was performed on tumor cell lines. A total of 1·10^4 cells/well/50 μl were seeded in a 96-wells plate. Treatment was initiated by addition of a 2× drug solution of 1/10 serial dilutions ranging from 0 to 10 μM. Cells were grown for 48 h at 37° C. and then incubated with 10 μl/well of Promega CellTiter-Bleue reagent for 4 h at 37° C. The amount of resorufin dye formed was quantified by its fluorescence emission at 590 nm using a scanning multiwell spectrophotometer (OPTIMA, BMG labtech, France). A blank well without cells was used as a background control for the spectrophotometer.

PANC1 = assay: CellTiter-Blue cell-based survival/proliferation assay, PANC1; details: Homo sapiens, PANC-1; PANC_1 pancreas tumor cell line, 48 h
Procedure: as §1, §2

MESSA = assay: CellTiter-Blue cell-based survival/proliferation assay, MESSA; details: Homo sapiens, MES-SA; MESSA ovary tumor cell line, 48 h
Procedure: as §1, §2

HCT116 = assay: CellTiter-Blue cell-based survival/proliferation assay, HCT116; details: Homo sapiens, HCT-116; HCT116 colorectal tumor cell line, 48 h
Procedure: as §1, §2

SW579 = assay: CellTiter-Blue cell-based survival/proliferation assay, SW579; details: Homo sapiens; SW579 head & neck tumor cell line, 48 h
Procedure: as §1, §2

TOV112D = assay: CellTiter-Blue cell-based survival/proliferation assay, TOV112D; details: Homo sapiens; TOV112D ovary tumor cell line, 48 h
Procedure: as §1, §2

A549 = assay: CellTiter-Blue cell-based survival/proliferation assay, A549; details: Homo sapiens; A549 lung tumor cell line, 48 h
Procedure: as §1, §2

MDAMB231 = assay: CellTiter-Blue cell-based survival/proliferation assay, MDAMB231; details: Homo sapiens, MDA-MB-231; MDAMB231 breast tumor cell line, 48 h
Procedure: as §1, §2

H1299 = assay: CellTiter-Blue cell-based survival/proliferation assay, H1299; details: Homo sapiens, NCI-H1299; H1299 lung tumor cell line, 48 h
Procedure: as §1, §2

OPM2 = assay: CellTiter-Blue cell-based survival/proliferation assay, OPM2; details: Homo sapiens, OPM-2, Myeloma cell line OPM2, 48 h, read-out: Anti-tumoral activity (measured IC50) OPM2
Procedure: as §1, §2

[1] = tested on: panel of about 34 human tumor cell lines; assay: Cell-based proliferation screening on panel of tumor cell lines; details: solid tumor cell line, cell line unknown, 48 h, read-out: IC50, solid tumor cell line of column 6 (last section of Table 3)
Procedure: Compounds of formula (I) were tested against a panel of about 34 human tumor cell lines representing 17 cancer type, namely leukemia (represented by 1 cell line), lymphoma (4 cell lines), myeloma (1 cell line), colorectal (2 cell lines), head and neck (3 cell lines), lung (3 cell lines), melanoma (2 cell lines), pancreas (2 cell lines), prostate (2 cell lines), ovary (2 cell lines) breast (2 cell lines), kidney (2 cell lines), stomach (2 cell lines), liver (2 cell lines), glioblastoma (2 cell lines), osteosarcoma (1 cell line), Ewing Sarcoma (1 cell line).
as §1, §2

HEPG2 = assay: CellTiter-Blue cell-based survival/proliferation assay, HEPG2; details: Homo sapiens; HEPG2 liver tumor cell line, 48 h
Procedure: as §1, §2

PLCPRF5 = assay: CellTiter-Blue cell-based survival/proliferation assay, PLCPRF5; details: Homo sapiens, PLC-PRF-5; PLC_PRF5 liver tumor cell line, 48 h
Procedure: as §1, §2

DLD1 = assay: CellTiter-Blue cell-based survival/proliferation assay, DLD1; details: Homo sapiens, DLD-1; DLD_1 colorectal tumor cell line, 48 h
Procedure: as §1, §2

HEP2 = assay: CellTiter-Blue cell-based survival/proliferation assay, HEP2; details: Homo sapiens, HEp-2; HEP2 head & neck tumor cell line, 48 h
Procedure: as §1, §2

ACHN = assay: CellTiter-Blue cell-based survival/proliferation assay, ACHN; details: Homo sapiens; ACHN kidney tumor cell line, 48 h
Procedure: as §1, §2

HGC27 = assay: CellTiter-Blue cell-based survival/proliferation assay, HGC27; details: Homo sapiens, HGC-27; HGC27 stomach tumor cell line, 48 h
Procedure: as §1, §2

BXPC3 = assay: CellTiter-Blue cell-based survival/proliferation assay, BXPC3; details: Homo sapiens, BXPC-3; BXPC3 pancreas tumor cell line, 48 h
Procedure: as §1, §2

DU145 = assay: CellTiter-Blue cell-based survival/proliferation assay, DU145; details: Homo sapiens, DU-145; DU145 prostate tumor cell line, 48 h
Procedure: as §1, §2

AGS = assay: CellTiter-Blue cell-based survival/proliferation assay, AGS; details: Homo sapiens; AGS stomach tumor cell line, 48 h
Procedure: as §1, §2

CALU6 = assay: CellTiter-Blue cell-based survival/proliferation assay, CALU6; details: Homo sapiens, Calu-6; CALU6 lung tumor cell line, 48 h
Procedure: as §1, §2

PC3 = assay: CellTiter-Blue cell-based survival/proliferation assay, PC3; details: Homo sapiens, PC-3; PC3 prostate tumor cell line, 48 h
Procedure: as §1, §2

BT20 = assay: CellTiter-Blue cell-based survival/proliferation assay, BT20; details: Homo sapiens, BT-20; BT20 breast tumor cell line, 48 h
Procedure: as §1, §2

HL60 = assay: CellTiter-Blue cell-based survival/proliferation assay, HL60; details: Homo sapiens, HL-60, Leukemia cell line HL60, 48 h, read-out: Anti-tumoral activity (measured IC50) HL60
Procedure: as §1, §2

A498 = assay: CellTiter-Blue cell-based survival/proliferation assay, A498; details: Homo sapiens; A498 kidney tumor cell line, 48 h
Procedure: as §1, §2

Row | Structure (SMILES) | IC50 (CLS354) [nM] | IC50 (PANC1) [nM] | IC50 (MESSA) [nM] | IC50 (HCT116) [nM] | IC50 (SW579) [nM] | IC50 (TOV112D) [nM] | IC50 (A549) [nM] | IC50 (MDAMB231) [nM] | IC50 (H1299) [nM] | IC50 (OPM2) [nM] | IC50 [1] [nM] | IC50 (HEPG2) [nM] | IC50 (PLCPRF5) [nM] | IC50 (DLD1) [nM] | IC50 (HEP2) [nM] | IC50 (ACHN) [nM] | IC50 (HGC27) [nM] | IC50 (BXPC3) [nM] | IC50 (DU145) [nM] | IC50 (AGS) [nM] | also measured
1 | CCOCc1ccc(C)c(Nc2ncc(-c3ccc(-n4nc[nH]c4=O)cc3)o2)c1 [Example 043, 2-{4-[2-(5-Ethoxymethyl-(2-methyl-phenylamino))-oxazol-5-yl]-phenyl}-2,4-dihydro-[1,2,4]triazol-3-one] | > 1000 | > 1000 | > 1000 | > 1000 | > 1000 | 100 to 500 | > 1000 | > 1000 | > 1000 | 500 to 1000 | 100 to 500 | > 1000 | > 1000 | > 1000 | > 1000 | > 1000 | > 1000 | > 1000 | > 1000 | > 1000 | IC50 (CALU6): > 1000 nM; IC50 (PC3): > 1000 nM; IC50 (BT20): > 1000 nM; IC50 (HL60): 500 to 1000 nM; IC50 (A498): > 1000 nM
2 | CCOCc1ccc(C)c(Nc2ncc(-c3ccc(N4C(=O)NC[C@H]4C)cc3)o2)c1 [Example 051, (R)-1-(4-(2-((5-(ethoxymethyl)-2-methylphenyl)amino)oxazol-5-yl)phenyl)-5-methylimidazolidin-2-one] | ≤ 100 | > 1000 | > 1000 | > 1000 | > 1000 | ≤ 100 | > 1000 | > 1000 | > 1000 | ≤ 100 | 100 to 500 | > 1000 | > 1000 | > 1000 | 100 to 500 | > 1000 | > 1000 | > 1000 | > 1000 | > 1000 | IC50 (CALU6): > 1000 nM; IC50 (PC3): ≤ 100 nM; IC50 (BT20): > 1000 nM; IC50 (HL60): ≤ 100 nM; IC50 (A498): > 1000 nM
3 | CCOCc1ccc(C)c(Nc2ncc(-c3ccc(N4CCNC4=O)nc3)o2)c1 [Example 055, 1-(5-(2-((5-(ethoxymethyl)-2-methylphenyl)amino)oxazol-5-yl)pyridin-2-yl)imidazolidin-2-one] | ≤ 100 | > 1000 | > 1000 | ≤ 100 | ≤ 100 | ≤ 100 | ≤ 100 | > 1000 | > 1000 | ≤ 100 | ≤ 100 | > 1000 | > 1000 | > 1000 | ≤ 100 | > 1000 | 500 to 1000 | > 1000 | > 1000 | > 1000 | IC50 (CALU6): > 1000 nM; IC50 (PC3): ≤ 100 nM; IC50 (BT20): > 1000 nM; IC50 (HL60): ≤ 100 nM; IC50 (A498): > 1000 nM
4 | CCOCc1cc(Nc2ncc(-c3ccc(N4CCNC4=O)cc3)o2)cc(OCCOC)c1 [Example 056, 1-(4-(2-((3-(ethoxymethyl)-5-(2-methoxyethoxy)phenyl)amino)oxazol-5-yl)phenyl)imidazolidin-2-one] | ≤ 100 | > 1000 | > 1000 | > 1000 | ≤ 100 | ≤ 100 | > 1000 | > 1000 | > 1000 | ≤ 100 | ≤ 100 | > 1000 | > 1000 | > 1000 | ≤ 100 | 100 to 500 | > 1000 | > 1000 | > 1000 | > 1000 | IC50 (CALU6): > 1000 nM; IC50 (PC3): ≤ 100 nM; IC50 (BT20): > 1000 nM; IC50 (HL60): ≤ 100 nM; IC50 (A498): > 1000 nM
5 | CCOCc1cc(COCC)cc(Nc2ncc(-c3ccc(N4CCNC4=O)cc3)o2)c1 [Example 053, 1-(4-(2-((3,5-bis(ethoxymethyl)phenyl)amino)oxazol-5-yl)phenyl)imidazolidin-2-one] | ≤ 100 | > 1000 | ≤ 100 | ≤ 100 | > 1000 | > 1000 | > 1000 | > 1000 | > 1000 | ≤ 100 | ≤ 100 | > 1000 | > 1000 | > 1000 | ≤ 100 | > 1000 | 100 to 500 | > 1000 | > 1000 | 100 to 500 | IC50 (CALU6): > 1000 nM; IC50 (PC3): ≤ 100 nM; IC50 (BT20): > 1000 nM; IC50 (HL60): ≤ 100 nM; IC50 (A498): > 1000 nM
